Reference: patent US20200062719A1, “Application of Imidazopyridine Derivatives in Regenerative Medicine” (University of Heidelberg, priority 2018, published 2020)

Columns and labels:
hiPSCs = assay: Differentiation markers in hiPSCs at high concentration; assay type: cell-based, human; settings: 10 μM
LSD1 = biological target: T1, LSD1 (Homo sapiens, UniProt O60341); assay: LSD1 demethylase inhibition, nuclear extraction; assay type: biochemical; settings: even at a concentration of 100 mM
T1 construct: using the whole-cell nuclear extraction; endogenous in cells
Text: HMT and HDM are two major classes of enzymes, contributing to the regulation of histone methylation. Lysine-specific demethylase 1 (LSD1) and histone lysine demethylase 5 (KDM5, also known as JARID1) majorly catalyze demethylation of H3K4. A few KDM5 chemical inhibitors have been reported to inhibit demethylation of H3K4, leading to an increase of global methylated H3K4 in various cell types. The inventors tested the inhibitory effect of O4I3 on LSD1 and KDM5. KDM4 (also known as JMJD2), the HDM of H3K9 and H3K36, was also included.
(§1) Epiquik histone demethylase (H3K4 specific) activity/inhibition assay kit (Epigentek, Biocat, Germany) was used to measure the protective effect of O4I3 and zolpidem on the methylation of H3K4. Their inhibitory effects on LSD1, KDM5s, and KDM4 were determined using Epigenase jarid demethylase activity/inhibition assay kit, Epigenase JMJD2 demethylase activity/inhibition assay kit and EpiQuik histone demethylase LSD1 activity/inhibition assay kit (Epigentek, Biocat, Germany). The total nuclear extraction was used according to manufacturer's instructions. For measuring KDM5A, KDM5B, KDM5C, and KDM5D activity, magnetic beads were used to immunoprecipitate the respective enzymes from 10^8 cells according to the manufacturer's instructions (Cell Signaling Technologies).

KDM5A = biological target: T2, KDM5A (Homo sapiens, UniProt P29375); assay: KDM5A inhibition, enzyme immunoprecipitated from cells; assay type: biochemical
T2 construct: magnetic beads were used to immunoprecipitate the respective enzymes from 10^8 cells; endogenous in cells
T2 sequence (P29375 whole entry): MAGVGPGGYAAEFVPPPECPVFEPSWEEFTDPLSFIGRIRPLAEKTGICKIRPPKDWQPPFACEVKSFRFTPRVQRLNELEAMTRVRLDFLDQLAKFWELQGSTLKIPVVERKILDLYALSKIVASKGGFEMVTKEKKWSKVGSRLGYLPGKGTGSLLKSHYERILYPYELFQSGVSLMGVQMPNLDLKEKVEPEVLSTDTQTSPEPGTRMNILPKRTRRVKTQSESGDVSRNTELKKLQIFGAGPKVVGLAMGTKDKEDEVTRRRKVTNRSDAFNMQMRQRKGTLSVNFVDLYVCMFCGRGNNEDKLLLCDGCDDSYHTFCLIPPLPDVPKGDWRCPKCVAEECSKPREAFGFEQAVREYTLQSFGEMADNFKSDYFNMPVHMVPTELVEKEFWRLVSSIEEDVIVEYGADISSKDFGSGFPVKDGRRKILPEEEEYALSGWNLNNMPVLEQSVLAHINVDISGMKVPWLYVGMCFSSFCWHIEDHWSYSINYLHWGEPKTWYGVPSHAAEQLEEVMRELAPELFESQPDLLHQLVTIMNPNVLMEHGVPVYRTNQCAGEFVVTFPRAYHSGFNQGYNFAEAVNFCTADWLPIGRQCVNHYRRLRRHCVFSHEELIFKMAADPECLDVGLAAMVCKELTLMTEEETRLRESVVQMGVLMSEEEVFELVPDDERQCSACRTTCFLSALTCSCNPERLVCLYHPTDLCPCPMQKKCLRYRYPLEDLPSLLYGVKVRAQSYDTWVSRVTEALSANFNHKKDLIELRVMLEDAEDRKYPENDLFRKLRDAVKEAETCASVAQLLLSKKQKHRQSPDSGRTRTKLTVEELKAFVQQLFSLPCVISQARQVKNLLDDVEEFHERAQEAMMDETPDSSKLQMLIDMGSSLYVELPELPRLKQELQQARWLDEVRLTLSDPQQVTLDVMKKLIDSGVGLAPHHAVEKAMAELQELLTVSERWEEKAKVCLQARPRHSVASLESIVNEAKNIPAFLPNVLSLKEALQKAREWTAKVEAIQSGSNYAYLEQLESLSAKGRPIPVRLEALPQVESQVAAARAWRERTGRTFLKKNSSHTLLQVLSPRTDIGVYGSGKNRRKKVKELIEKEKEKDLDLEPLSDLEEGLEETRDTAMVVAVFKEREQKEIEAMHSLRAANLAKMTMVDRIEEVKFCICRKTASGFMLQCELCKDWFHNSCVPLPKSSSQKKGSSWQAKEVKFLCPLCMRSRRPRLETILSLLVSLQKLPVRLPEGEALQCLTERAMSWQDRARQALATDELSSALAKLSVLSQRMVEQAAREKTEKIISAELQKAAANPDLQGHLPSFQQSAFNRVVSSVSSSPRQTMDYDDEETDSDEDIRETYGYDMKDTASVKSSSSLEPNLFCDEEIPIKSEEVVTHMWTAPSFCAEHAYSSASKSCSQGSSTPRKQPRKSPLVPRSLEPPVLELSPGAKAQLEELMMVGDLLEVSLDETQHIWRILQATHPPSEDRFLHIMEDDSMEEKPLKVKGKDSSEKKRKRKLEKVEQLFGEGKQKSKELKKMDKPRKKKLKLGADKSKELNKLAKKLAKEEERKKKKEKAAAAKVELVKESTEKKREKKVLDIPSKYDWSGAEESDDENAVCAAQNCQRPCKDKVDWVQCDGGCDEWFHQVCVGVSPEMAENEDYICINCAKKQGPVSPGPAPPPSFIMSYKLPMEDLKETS
Text: (§2) In mammalian cells, the KDM5 family consists of four members, namely, KDM5A (known as JARID1A), KDM5B (known as JARID1B or PLU1), KDM5C (JARID1C), and KDM5D (JARID1D or SMCY). […] Next, the inventors tested four KDM chemical inhibitors. […] The inventors detected the induction of OCT4, SOX2, and E-Cadherin expression in JIB-04-treated HFs (FIG. 18D).
as §1

human fibroblasts = assay: qRT-PCR of reprogramming associated genes in human fibroblasts; assay type: cell-based; settings: human fibroblasts, O4I3 0.5 μM
Description: Analyzing the effects of O4I3 on human fibroblasts, the activation of reprogramming associated genes, including an about 10-fold induction of Oct4, Nanog and Lin28, and an about 100-fold increase of Sox2 and E-Cadherin mRNA levels was detected. In particular, expression of several essential genes for reprogramming is equal to those in pluripotent stem cells, such as Esrrb, FGF2 and Sall4 (FIG. 12).
Quantitative reverse-transcription real-time-PCR was performed using a Light Cycler 96 (Roche, Germany) following the manufacturer's protocol. Briefly, total RNA was isolated from cells using TRIzol (Qiagen, Germany) or NucleoSpin®RNA Plus (Macherey-Nagel, Germany). The same amount of RNA was used to reverse-transcriptional synthesize cDNA by using random primers ProtoScript® First Strand cDNA Synthesis Kit (NEB, Germany). qPCR was performed using the SYBR Green PCR master mix (qPCRBIO SyGreen Mix Lo-Rox, Nippon Genetics, Germany) and the primer pairs indicated below (MWG, Eurofins, Germany). Actin was used as an endogenous control. Data were normalized to the value of untreated cells showing the mean±SD of quadruplicates and are representative of at least three independent experiments.

KDM5B = biological target: T3, KDM5B (Homo sapiens, UniProt Q9UGL1); assay: KDM5B inhibition, enzyme immunoprecipitated from cells; assay type: biochemical
T3 construct: magnetic beads were used to immunoprecipitate the respective enzymes from 10^8 cells; endogenous in cells
T3 sequence (Q9UGL1 whole entry): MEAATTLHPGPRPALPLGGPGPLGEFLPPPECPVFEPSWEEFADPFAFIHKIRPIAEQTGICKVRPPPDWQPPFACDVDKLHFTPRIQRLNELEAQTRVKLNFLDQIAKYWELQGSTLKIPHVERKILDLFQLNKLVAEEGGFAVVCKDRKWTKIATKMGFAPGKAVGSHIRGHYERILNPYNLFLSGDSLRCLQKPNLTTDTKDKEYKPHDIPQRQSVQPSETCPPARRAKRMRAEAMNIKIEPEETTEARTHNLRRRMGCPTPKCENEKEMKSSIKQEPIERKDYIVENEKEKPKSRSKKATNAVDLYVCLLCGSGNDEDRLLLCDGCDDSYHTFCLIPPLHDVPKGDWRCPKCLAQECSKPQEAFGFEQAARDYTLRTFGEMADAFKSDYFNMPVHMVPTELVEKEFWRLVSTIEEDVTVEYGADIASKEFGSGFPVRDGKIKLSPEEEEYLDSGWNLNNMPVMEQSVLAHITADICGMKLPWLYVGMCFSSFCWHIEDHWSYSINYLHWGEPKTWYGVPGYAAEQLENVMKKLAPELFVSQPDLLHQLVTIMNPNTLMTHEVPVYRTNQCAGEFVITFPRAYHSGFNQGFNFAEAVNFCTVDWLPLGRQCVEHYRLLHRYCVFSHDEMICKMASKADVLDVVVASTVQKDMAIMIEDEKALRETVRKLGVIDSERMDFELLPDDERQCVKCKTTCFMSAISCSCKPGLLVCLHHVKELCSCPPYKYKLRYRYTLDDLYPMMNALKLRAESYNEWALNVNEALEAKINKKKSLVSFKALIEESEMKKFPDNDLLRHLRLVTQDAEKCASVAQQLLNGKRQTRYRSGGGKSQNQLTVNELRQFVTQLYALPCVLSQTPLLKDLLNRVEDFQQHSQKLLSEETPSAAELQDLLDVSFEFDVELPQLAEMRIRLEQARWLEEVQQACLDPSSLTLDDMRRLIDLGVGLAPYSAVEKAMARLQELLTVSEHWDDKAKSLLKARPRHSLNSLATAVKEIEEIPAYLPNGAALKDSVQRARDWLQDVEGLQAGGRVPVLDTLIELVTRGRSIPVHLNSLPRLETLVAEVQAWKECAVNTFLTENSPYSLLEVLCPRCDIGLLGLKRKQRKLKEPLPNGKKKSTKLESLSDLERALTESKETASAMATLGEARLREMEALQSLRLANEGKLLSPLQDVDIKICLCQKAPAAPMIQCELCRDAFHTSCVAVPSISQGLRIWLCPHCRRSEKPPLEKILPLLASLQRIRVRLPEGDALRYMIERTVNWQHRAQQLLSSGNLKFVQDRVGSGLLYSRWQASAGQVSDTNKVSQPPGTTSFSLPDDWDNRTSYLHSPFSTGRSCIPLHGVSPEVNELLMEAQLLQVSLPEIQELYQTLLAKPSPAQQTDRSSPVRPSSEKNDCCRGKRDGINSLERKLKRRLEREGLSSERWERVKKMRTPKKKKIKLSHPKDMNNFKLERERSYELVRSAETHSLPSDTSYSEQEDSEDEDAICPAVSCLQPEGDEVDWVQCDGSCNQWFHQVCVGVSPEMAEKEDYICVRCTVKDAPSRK
Text: as §2, §1

Oct4 = assay: Luciferase reporter assay in NCCIT-Oct4 cells; assay type: cell-based, human
Description: The ability of the lead compound to induce Oct4 at translational level was tested in a luciferase reporter cell line in human embryonic carcinoma NCCIT cells driven by Oct4 response elements (NCCIT-Oct4). The compound lead to a nearly 10-fold induction of Oct4 at 10 nM compared to untreated cells (FIG. 1B). Consequently, the lead compound was named “Oct4 inducing compound 3” (O4I3).
Luciferase reporter assay was performed using Beatle Juice Kit (PJK, Germany) according to the manufacturer's instruction. NCCIT-Oct and NCCIT-Nanog reporter cells were plated into a 24-well plate (100,000 cells/well) for 24 h. Cells were treated with compounds as indicated and harvested with luciferase lysis buffer (25 mM Tris phosphate buffer pH=7.8, 4 mM EGTA, 1% Triton X-100, 10% glycerol and 2 mM fresh DTT, filtered through 0.45 μm sterile filter) at 37° C. for 15 min. The protein concentration was determined by Bradford assay (Sigma, Germany). 100 μL reaction mixture containing luciferin and ATP was added to 20 μL cell lysis in a white plate (Gibco, Germany), incubated for 5 min and measured by a luminometer plate-reader. The activity was determined as percent luminous intensity of treated cells over control cells from at least five-independent experiments.

KDM5D = biological target: T4, KDM5D (Homo sapiens, UniProt Q9BY66); assay: KDM5D inhibition, enzyme immunoprecipitated from cells; assay type: biochemical
T4 construct: magnetic beads were used to immunoprecipitate the respective enzymes from 10^8 cells; endogenous in cells
T4 sequence (Q9BY66 whole entry): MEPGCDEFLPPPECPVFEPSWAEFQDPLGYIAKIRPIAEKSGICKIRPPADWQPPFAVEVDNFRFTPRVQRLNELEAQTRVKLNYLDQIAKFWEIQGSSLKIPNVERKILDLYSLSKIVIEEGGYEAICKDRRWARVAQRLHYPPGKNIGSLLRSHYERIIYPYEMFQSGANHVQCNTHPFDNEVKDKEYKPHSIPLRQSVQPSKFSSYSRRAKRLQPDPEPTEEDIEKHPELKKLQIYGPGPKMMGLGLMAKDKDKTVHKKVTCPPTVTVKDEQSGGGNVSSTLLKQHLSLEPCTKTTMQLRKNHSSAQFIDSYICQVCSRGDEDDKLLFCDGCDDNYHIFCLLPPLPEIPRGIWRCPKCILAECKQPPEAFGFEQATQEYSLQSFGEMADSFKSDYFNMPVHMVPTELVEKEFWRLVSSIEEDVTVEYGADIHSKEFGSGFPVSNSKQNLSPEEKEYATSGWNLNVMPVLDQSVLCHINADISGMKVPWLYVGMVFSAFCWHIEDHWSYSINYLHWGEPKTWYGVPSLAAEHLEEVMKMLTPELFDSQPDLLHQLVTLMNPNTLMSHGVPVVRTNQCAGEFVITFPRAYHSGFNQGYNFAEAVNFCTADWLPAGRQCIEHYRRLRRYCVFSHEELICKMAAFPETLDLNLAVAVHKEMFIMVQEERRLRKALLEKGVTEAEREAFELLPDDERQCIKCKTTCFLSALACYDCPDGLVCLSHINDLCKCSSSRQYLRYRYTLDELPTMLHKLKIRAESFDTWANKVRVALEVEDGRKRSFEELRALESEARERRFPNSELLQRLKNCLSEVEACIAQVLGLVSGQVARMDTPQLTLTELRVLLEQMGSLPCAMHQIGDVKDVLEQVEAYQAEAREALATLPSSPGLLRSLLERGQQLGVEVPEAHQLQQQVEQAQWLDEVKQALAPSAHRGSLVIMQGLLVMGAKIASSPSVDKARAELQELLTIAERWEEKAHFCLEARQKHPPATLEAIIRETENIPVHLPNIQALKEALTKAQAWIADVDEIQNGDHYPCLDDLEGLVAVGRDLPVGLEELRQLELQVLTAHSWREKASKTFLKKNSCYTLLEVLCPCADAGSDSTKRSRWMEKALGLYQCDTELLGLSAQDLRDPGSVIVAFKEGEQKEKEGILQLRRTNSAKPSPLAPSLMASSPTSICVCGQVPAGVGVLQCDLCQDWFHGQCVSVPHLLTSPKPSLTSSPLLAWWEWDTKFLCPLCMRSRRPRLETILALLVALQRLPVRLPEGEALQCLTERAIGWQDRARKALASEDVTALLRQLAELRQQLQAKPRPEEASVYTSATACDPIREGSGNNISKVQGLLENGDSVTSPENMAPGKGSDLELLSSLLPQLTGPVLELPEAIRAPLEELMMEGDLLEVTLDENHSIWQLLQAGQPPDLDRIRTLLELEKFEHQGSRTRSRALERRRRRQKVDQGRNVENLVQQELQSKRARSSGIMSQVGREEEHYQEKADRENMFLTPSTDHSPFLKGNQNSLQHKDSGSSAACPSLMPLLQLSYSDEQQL
Text: as §2, §1

H3K4Me3 = assay: Global H3K4Me3 level in fibroblasts (immunocytochemistry, immunoblotting); assay type: cell-based, human
Text: The inventors investigated the transfection efficiency in HF1 and HF4 using the same episomal vector carrying cytomegalovirus (CMV)-driven GFP. The inventors could not observe a significant difference between two cell lines, as determined by FACS analysis. […] To study the epigenetic effects of O4I3 and its relevance to reprogramming, the inventors focused on two histone modifications at the promoter of OCT4, namely, H3K4Me3, known to be related to gene activation, and H3K27Me3, which indicates gene repression. […] The level of H3K27Me3 at the OCT4 promoter was minimally affected in our experiments (FIG. 17C). […] Immunoblotting confirmed a dose- and time-dependent increase of global H3K4Me3 expression in fibroblast, whereas H3K27Me3 remained mostly unaffected (FIG. 17E). In an in vitro methylation assay, O4I3 protected methylated H3K4 with an […] value of 20 nM (FIG. 17F). Trimethylation of H3K9 has been reported to block reprogramming by recruiting heterochromatin protein 1 to form heterochromatin at the core of pluripotency loci, which interferes with the hypermethylation of H3K4. […]
Fibroblasts were treated with O4I3 0.5 μM for 2 days in the presence/absence of reprogramming transcription factors. […] The signal intensity was analyzed using ImageJ software as single cell level randomly selected from at least three independent experiments.

Cc1ccc(-c2cn3cc(C)ccc3n2)cc1 [O4I3, 6-methyl-2-(p-tolyl)imidazo[1,2-a]pyridine]
differentiation markers T and Gata4 (hiPSCs): induction of those markers | inhibitory effect on LSD1 (LSD1): hardly detected the inhibitory effect | IC50 (KDM5A): 0.19 nM | increase of E-Cadherin mRNA levels (human fibroblasts): about 100 fold | increase of Sox2 mRNA levels (human fibroblasts): about 100 fold | induction of Lin28 mRNA (human fibroblasts): about 10 fold | induction of Nanog mRNA (human fibroblasts): about 10 fold | induction of Oct4 mRNA (human fibroblasts): about 10 fold | IC50 less potent than for KDM5A, KDM5B (KDM5B): 1,000 fold | induction of Oct4 compared to untreated cells (Oct4; 10 nM, NCCIT-Oct4 cells, 48 h): ~10 fold | time course of Oct4 activation (Oct4; over 4 days): continuous and constant activation | IC50 less potent than for KDM5A, KDM5D (KDM5D): 20 fold | global level of H3K4Me3 (H3K4Me3): increase of H3K4Me3
